According to article PMC4155923 (AIDS (London, England), 2012):
Where two headings read alike, the source gives them in different places.

Legend:
sHLA-B*57:01 [1] = biological target: T1, sHLA-B*57:01 (Homo sapiens, UniProt P01889); assay: Drug effect on LF9FITC peptide binding to sHLA-B*57:01
[2] = test system: patients expressing HLA risk alleles; details: cited from earlier work
HLA-B*57:01 = assay type: cell-based, human; details: abacavir-treated cells
CD8+ T cells = details: abacavir hypersensitivity; ref [14]; cited from earlier work
sHLA-B*57:01 [3] = biological target: T1, sHLA-B*57:01; assay: HLA-B*57:01 fluorescence polarization competition peptide-binding assay; details: competition with LF9FITC; for affinity for HLA-B*57:01 (in words): fluorescence polarization, no abacavir
[4] = biological target: Soluble HLA-B*57:01 (human | human (endogenous in 721.221)); assay: fluorescence polarisation

For `Nc1nc(NC2CC2)c2ncn([C@H]3C=C[C@@H](CO)C3)c2n1` [Abacavir, abacavir], the “LF9FITC reference binding signal in competition experiment” value (sHLA-B*57:01 [1]; 200 μmol/l abacavir, in presence of competitor peptide HSL or STIR) is listed as “expected increase in reference LF9FITC peptide binding signal with abacavir”, the “concentration at which the increase in LF9FITC binding starts” value (sHLA-B*57:01 [1]; fluorescence polarization at equilibrium) is listed as 10 µmol/L and the “tolerance of abacavir in HLA-B*57:01 individuals” value ([2]; HLA-B*57:01 individuals, ref (1)) is listed as “Many HLA-B*57:01 individuals are able to tolerate abacavir and not show hypersensitivity”. For the same molecule, the HLA-associated drug reaction ([2]; drug hypersensitivity, HLA-B*57:01, ref [1]–[3]) was “linked to HLA-B*57:01”, the “covalent drug-peptide adducts in peptide fractions” value (HLA-B*57:01) was “we have not, as yet, identified covalent drug–peptide adducts in the peptide fractions” and the “requirements of CD8+ T-cell response” value (CD8+ T cells) was “CD8^+ T-cell responses require transporter of antigen presentation (TAP)/tapasin expression, antigen processing and specific amino acids in the F pocket of HLA-B*57:01”.

For `Oc1ncnc2[nH]ncc12` [allopurinol], the HLA-associated drug reaction ([2]; severe cutaneous adverse reactions, HLA-B*58:01, ref [7]) is given as “Severe cutaneous adverse reactions associated with class I HLA”.

In the case of `NC(=O)N1c2ccccc2C=Cc2ccccc21` [carbamazepine], the HLA-associated drug reaction ([2]; severe cutaneous adverse reactions, HLA-B*15:02 [4], B*15:11 [5], A*31:01 [6], ref [4]–[6]) is given as “Severe cutaneous adverse reactions associated with class I HLA”.

In the case of `Cc1onc(-c2c(F)cccc2Cl)c1C(=O)N[C@@H]1C(=O)N2[C@@H]1SC(C)(C)[C@@H]2C(=O)O` [flucloxacillin], the HLA-associated drug reaction ([2]; liver injury, HLA-B*57:01, ref [8]) is listed as “causes drug-induced liver injury in patients expressing HLA-B*57:01”.

For LSSPVTKSF [LF9], the “affinity for HLA-B*57:01 (in words)” value (sHLA-B*57:01 [3]) was “consistent with high-affinity binding”.

In the case of STIRLLTSL, the “affinity for HLA-B*57:01 (in words)” value (sHLA-B*57:01 [3]) is reported as “could strongly compete in the HLA-B*57:01 peptide-binding assay (Fig. 4a and b), with logIC50 values consistent with high-affinity binding” and the “effect of abacavir on IC50 / inhibition by competitor peptide” value (sHLA-B*57:01 [3]; presence vs absence of 200 μmol/l abacavir) is reported as “No significant difference in inhibition”.

For LSSPVTKSF [LF9 (…)], the log IC50 [4] was 2.6.
